The test has as its target IgE-Tb / sFcεRIα-Y131A-AF488 (Homo sapiens, UniProt P01854, N146Q/N252Q). Kind of test: IgE-Tb / sFcεRIα-Y131A-AF488 FRET assay (protocol for examples 234 to 501). The following applies: examples 234 to 501: compound with IgE-Tb 30 minutes before sFcεRIα-Y131A-AF488, incubated 18 hours at room temperature; read-out: Y131A FRET IC50 range. It counts as binding. In a few lines:
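Compounds (10-point 3-fold series, top usually 10 μM, 2% DMSO) preincubated 30 min with 5 nM IgE-Tb, then 25 nM sFcεRIα-Y131A-AF488 added; 18 h at room temperature in the dark. TR-FRET ratio 520/490 nm after 337 nm excitation, background-subtracted; IC50 by four-parameter logistic fit.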
IgE-Tb / sFcεRIα-Y131A-AF488, sequence (P01854 whole entry N146Q/N252Q): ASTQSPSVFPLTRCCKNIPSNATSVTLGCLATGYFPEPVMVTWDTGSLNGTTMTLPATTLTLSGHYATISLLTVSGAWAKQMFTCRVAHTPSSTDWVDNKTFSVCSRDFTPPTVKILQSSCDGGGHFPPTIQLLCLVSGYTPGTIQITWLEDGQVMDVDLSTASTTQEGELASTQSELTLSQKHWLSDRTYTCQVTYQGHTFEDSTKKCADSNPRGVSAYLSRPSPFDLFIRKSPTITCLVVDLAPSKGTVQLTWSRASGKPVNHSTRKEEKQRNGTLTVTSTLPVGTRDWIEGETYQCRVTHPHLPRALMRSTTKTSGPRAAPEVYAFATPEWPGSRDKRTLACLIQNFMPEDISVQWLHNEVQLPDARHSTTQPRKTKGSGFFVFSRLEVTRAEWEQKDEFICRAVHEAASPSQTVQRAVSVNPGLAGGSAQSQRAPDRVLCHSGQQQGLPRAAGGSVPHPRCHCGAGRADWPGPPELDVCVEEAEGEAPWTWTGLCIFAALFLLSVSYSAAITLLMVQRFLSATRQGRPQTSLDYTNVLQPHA
With `O=C(NCC1CC1)c1c(NC(=O)C2CC2)sc2c1C[C@@H](n1cnnc1N[C@H]1CCN(c3ccc(F)nn3)C1)CC2` [Example 245, (5S)-2-(cyclopropanecarbonylamino)-N-(cyclopropylmethyl)-5-[3-[[(3S)-1-(6-fluoropyridazin-3-yl)pyrrolidin-3-yl]amino]-1,2,4-triazol-4-yl]-4,5,6,7-tetrahydrobenzothiophene-3-carboxamide], the 50% inhibitory concentration (IC50) is below 1 µM. For `O=C(NCC1CC1)c1c(NC(=O)C2CC2)sc2c1C[C@@H](n1cnnc1N[C@H]1CCN(c3ncccn3)C1)CC2` [Example 246], the IC50 is below 1 µM. In the case of `COCCOC(=O)c1ncn([C@H]2CCc3sc(NC(=O)C4CC4)c(C(=O)NCC4CC4)c3C2)c1N` [Example 247, 2-methoxyethyl 5-amino-1-[(5S)-2-(cyclopropanecarbonylamino)-3-(cyclopropylmethylcarbamoyl)-4,5,6,7-tetrahydro-1-benzothiophen-5-yl]imidazole-4-carboxylate], the concentration for half-maximal inhibition (IC50) was below 1 µM.

As for `Nc1c(C(=O)OCCN2CCOCC2)ncn1[C@H]1CCc2sc(NC(=O)C3CC3)c(C(=O)NCC3CC3)c2C1` [Example 248, 2-morpholin-4-ylethyl 5-amino-1-[(5S)-2-(cyclopropanecarbonylamino)-3-(cyclopropylmethylcarbamoyl)-4,5,6,7-tetrahydro-1-benzothiophen-5-yl]imidazole-4-carboxylate], the IC50 was below 1 µM.

Consider `CSc1cccc(Nc2nncn2[C@H]2CCc3sc(NC(=O)C4CC4)c(C(=O)NCC4CC4)c3C2)c1` [Example 249, (5S)-2-(cyclopropanecarbonylamino)-N-(cyclopropylmethyl)-5-[3-(3-methylsulfanylanilino)-1,2,4-triazol-4-yl]-4,5,6,7-tetrahydrobenzothiophene-3-carboxamide], for which the 50% inhibitory concentration (IC50) was below 1 µM. In the case of `CS(=O)(=O)c1cccc(Nc2nncn2[C@H]2CCc3sc(NC(=O)C4CC4)c(C(=O)NCC4CC4)c3C2)c1` [Example 250, (5S)-2-(cyclopropanecarbonylamino)-N-(cyclopropylmethyl)-5-[3-(3-methylsulfonylanilino)-1,2,4-triazol-4-yl]-4,5,6,7-tetrahydrobenzothiophene-3-carboxamide], the half-inhibitory concentration (IC50) was below 1 µM. As for `C[S+]([O-])c1cccc(Nc2nncn2[C@H]2CCc3sc(NC(=O)C4CC4)c(C(=O)NCC4CC4)c3C2)c1` (stereo partly drawn) [Example 251, (5S)-2-(cyclopropanecarbonylamino)-N-(cyclopropylmethyl)-5-[3-(3-methylsulfinylanilino)-1,2,4-triazol-4-yl]-4,5,6,7-tetrahydrobenzothiophene-3-carboxamide], the figure is below 1 µM; as for `C[S+]([O-])c1cccc(Nc2nncn2[C@H]2CCc3sc(NC(=O)C4CC45CC5)c(C(=O)NCC4CC4)c3C2)n1` (stereo partly drawn) [Example 255, (5S)—N-(cyclopropylmethyl)-5-[3-[(6-methylsulfinyl-2-pyridyl)amino]-1,2,4-triazo-4-yl]-2-(spiro[2.2]pentane-2-carbonylamino)-4,5,6,7-tetrahydrobenzothiophene-3-carboxamide], below 1 µM; as for `COc1ccc2c(c1)Nc1c(ncn1[C@H]1CCc3sc(NC(=O)C4CC4)c(C(=O)NCC4CC4)c3C1)C(=O)N2` [Example 257, (5S)-2-(cyclopropanecarbonylamino)-N-(cyclopropylmethyl)-5-(8-methoxy-4-oxo-5,10-dihydroimidazo[4,5-c][1,5]benzodiazepin-1-yl)-4,5,6,7-tetrahydrobenzothiophene-3-carboxamide], below 1 µM. Consider `COc1ccc2c(c1)Nc1c(ncn1[C@H]1CCc3sc(NC(=O)C4CC4)c(C(=O)NCC4CC4)c3C1)C(=O)N2C` [Example 258, (5S)-2-(cyclopropanecarbonylamino)-N-(cyclopropylmethyl)-5-(8-methoxy-5-methyl-4-oxo-10H-imidazo[4,5-c][1,5]benzodiazepin-1-yl)-4,5,6,7-tetrahydrobenzothiophene-3-carboxamide], for which the concentration for half-maximal inhibition (IC50) is below 1 µM.

Turning to `Nc1c(C(=O)N2CC[C@@H](O)C2)ncn1[C@H]1CCc2sc(NC(=O)C3CC3)c(C(=O)NCC3CC3)c2C1` [Example 260, (5S)-5-[5-amino-4-[(3R)-3-hydroxypyrrolidine-1-carbonyl]imidazol-1-yl]-2-(cyclopropanecarbonylamino)-N-(cyclopropylmethyl)-4,5,6,7-tetrahydrobenzothiophene-3-carboxamide], the 50% inhibitory concentration (IC50) is below 1 µM.

With `C[C@H]1CCCN1C(=O)c1ncn([C@H]2CCc3sc(NC(=O)C4CC4)c(C(=O)NCC4CC4)c3C2)c1N` [Example 261, (5S)-5-[5-amino-4-[(2S)-2-methylpyrrolidine-1-carbonyl]imidazol-1-yl]-2-(cyclopropanecarbonylamino)-N-(cyclopropylmethyl)-4,5,6,7-tetrahydrobenzothiophene-3-carboxamide], the IC50 was below 1 µM. For `CCOC(=O)c1ncn([C@H]2CCc3sc(NC(=O)C4CC4)c(C(=O)NCC4CC4)c3C2)c1Nc1c([N+](=O)[O-])c(C)nn1C` [Example 262, Ethyl 1-[(5S)-2-(cyclopropanecarbonylamino)-3-(cyclopropylmethylcarbamoyl)-4,5,6,7-tetrahydrobenzothiophen-5-yl]-5-[(2,5-dimethyl-4-nitro-pyrazol-3-yl)amino]imidazole-4-carboxylate] the value was below 1 µM; for `Cc1c(Nc2nncn2[C@H]2CCc3sc(NC(=O)C4CC4)c(C(=O)NCC4CC4)c3C2)cccc1[S+](C)[O-]` (stereo partly drawn) [Example 263, (5S)-2-(cyclopropanecarbonylamino)-N-(cyclopropylmethyl)-5-[3-(2-methyl-3-methylsulfinyl-anilino)-1,2,4-triazol-4-yl]-4,5,6,7-tetrahydrobenzothiophene-3-carboxamide], below 1 µM; for `Cc1c(Nc2nncn2[C@H]2CCc3sc(NC(=O)C4CC4)c(C(=O)NCC4CC4)c3C2)cccc1S(C)(=O)=O` [Example 264, (5S)-2-(cyclopropanecarbonylamino)-N-(cyclopropylmethyl)-5-[3-(2-methyl-3-methylsulfonyl-anilino)-1,2,4-triazol-4-yl]-4,5,6,7-tetrahydrobenzothiophene-3-carboxamide], below 1 µM.

As for `Cn1nc(-c2ncco2)cc1Nc1nncn1[C@H]1CCc2sc(NC(=O)C3CC3)c(C(=O)NCC3CC3)c2C1` [Example 265, (5S)-2-(cyclopropanecarbonylamino)-N-(cyclopropylmethyl)-5-[3-[(2-methyl-5-oxazol-2-yl-pyrazol-3-yl)amino]-1,2,4-triazol-4-yl]-4,5,6,7-tetrahydrobenzothiophene-3-carboxamide], the IC50 was below 1 µM. For `CC(=O)N1CC[C@H](Nc2nncn2[C@H]2CCc3sc(NC(=O)C4CC4)c(C(=O)NCC4CC4)c3C2)C1` [Example 266, (5S)-5-[3-[[(3S)-1-acetylpyrrolidin-3-yl]amino]-1,2,4-triazol-4-yl]-2-(cyclopropanecarbonylamino)-N-(cyclopropylmethyl)-4,5,6,7-tetrahydrobenzothiophene-3-carboxamide] the value was below 1 µM; for `CS(=O)(=O)N1CC[C@H](Nc2nncn2[C@H]2CCc3sc(NC(=O)C4CC4)c(C(=O)NCC4CC4)c3C2)C1` [Example 267, (5S)-2-(cyclopropanecarbonylamino)-N-(cyclopropylmethyl)-5-[3-[[(3S)-1-methylsulfonylpyrrolidin-3-yl]amino]-1,2,4-triazol-4-yl]-4,5,6,7-tetrahydrobenzothiophene-3-carboxamide], below 1 µM.

In general, IC50 refers to the concentration that gives 50% inhibition.

These data come from patent publication US12018021B2 (UCB Biopharma SRL, priority 2018, dated 2024).
